In PMC4609575 (The international journal of biochemistry & cell biology, 2010):
Where two headings read alike, the source gives them in different places.

Assays:
hα3β4 AChR [1] = target: T1, hα3β4 AChR (Homo sapiens, UniProt P30926+P32297); assay: cell-based; type: cell-based
hα3β4 AChR [2] = target: T1, hα3β4 AChR; assay: Equilibrium binding of [3H]ibogaine to hα3β4 AChR membranes
hα3β4 AChR [3] = target: T1, hα3β4 AChR; type: binding; details: for nH: radioligand [3H]TCP
hα3β4 AChR [4] = target: T1, hα3β4 AChR; type: binding; details: for nH: radioligand [3H]ibogaine
rat α3β4 AChRs = details: 86Rb+ efflux, rat α3β4 AChRs ref Hernandez et al., 2000; cited from earlier work
hα3β4 AChR [5] = target: T1, hα3β4 AChR; assay: Binding kinetics by non-linear chromatography on the CMAC-hα3β4 AChR column
hα3β4 AChR [6] = target: T1, hα3β4 AChR; type: binding; details: for ΔG^20: 293 K; for Ea (energy of activation of the dissociation process): Arrhenius plot; for ΔH°: van't Hoff plot
[7] = Desensitized state (1 µM (−)-nicotine)
[8] = AChR in the resting state (κ-BTx), 20 °C
[9] = Epibatidine treated column (desensitized state)
[10] = κ-BTx treated column (resting state)

T1 sequence (P32297 32-505): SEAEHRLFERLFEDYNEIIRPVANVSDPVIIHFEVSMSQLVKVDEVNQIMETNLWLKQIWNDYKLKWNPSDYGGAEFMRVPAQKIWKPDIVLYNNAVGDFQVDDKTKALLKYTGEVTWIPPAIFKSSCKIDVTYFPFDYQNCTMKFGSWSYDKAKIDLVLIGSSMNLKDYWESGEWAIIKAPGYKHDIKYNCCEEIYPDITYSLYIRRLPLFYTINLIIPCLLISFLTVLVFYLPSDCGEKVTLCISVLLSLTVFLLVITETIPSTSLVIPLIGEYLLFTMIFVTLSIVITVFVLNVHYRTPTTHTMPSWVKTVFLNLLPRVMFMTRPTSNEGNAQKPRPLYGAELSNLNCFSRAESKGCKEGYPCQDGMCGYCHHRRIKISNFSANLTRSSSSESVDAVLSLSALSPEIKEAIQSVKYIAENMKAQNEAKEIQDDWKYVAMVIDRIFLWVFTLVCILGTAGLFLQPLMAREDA
T1 sequence (P30926 22-498): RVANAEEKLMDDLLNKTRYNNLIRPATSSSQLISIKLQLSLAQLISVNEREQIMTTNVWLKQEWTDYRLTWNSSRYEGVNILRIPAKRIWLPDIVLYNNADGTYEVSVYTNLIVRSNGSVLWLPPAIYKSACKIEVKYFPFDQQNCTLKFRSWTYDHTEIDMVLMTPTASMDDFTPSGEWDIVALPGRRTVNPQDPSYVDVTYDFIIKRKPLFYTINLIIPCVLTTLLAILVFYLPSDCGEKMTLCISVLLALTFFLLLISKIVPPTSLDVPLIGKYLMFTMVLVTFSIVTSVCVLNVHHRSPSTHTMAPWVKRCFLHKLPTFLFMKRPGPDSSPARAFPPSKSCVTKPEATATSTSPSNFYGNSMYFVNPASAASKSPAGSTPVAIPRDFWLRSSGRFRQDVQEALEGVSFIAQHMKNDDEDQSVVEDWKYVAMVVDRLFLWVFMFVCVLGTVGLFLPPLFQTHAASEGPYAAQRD

Molecule: Clc1ccc(C2CC3CCC2N3)cn1 (racemic) [(±)-epibatidine, (±)-Epibatidine]
- nH (Hill coefficient) (hα3β4 AChR [1]; activation of the hα3β4 AChR, Ca2+ influx): 1.21 ± 0.06

Molecule: [^3H]ibogaine
- specific activity (number of binding sites, Bmax) (hα3β4 AChR [2]; HEK293-hα3β4 membranes, x-intersect of Scatchard plot): 3.9 ± 0.4 pmol/mg protein
- Kd (hα3β4 AChR [2]; resting (no ligand) state, Rosenthal-Scatchard plot): 0.46 ± 0.06 µM

Molecule: c1ccc(C2(N3CCCCC3)CCCCC2)cc1 [PCP, phencyclidine]
- Ki (hα3β4 AChR [3]): 10 ± 2 µM
- nH (hα3β4 AChR [3]; Resting state): 0.87 ± 0.10
- Ki (hα3β4 AChR [4]): 17 ± 2 µM
- nH (hα3β4 AChR [4]; Resting state): 0.88 ± 0.07
- times lower affinity compared to ibogaine (hα3β4 AChR [4]; resting hα3β4 AChR, Table 2 values): 10–16 times
- IC50 (hα3β4 AChR [1]): 8.5 ± 1.4 µM
- fold higher inhibitory potency in the hα3β4 AChR than in the muscle AChR (hα3β4 AChR [1]; compared with muscle AChR value of ref Fryer and Lukas, 1999): ~ 2 fold
- nH (Hill coefficient) (hα3β4 AChR [1]; inhibition of (±)-epibatidine-induced Ca2+ influx, HEK293-hα3β4 cells): 0.92 ± 0.02
- IC50 (rat α3β4 AChRs): 7 ± 1.3 µM

Molecule: 7-ethyl-6,2,7,8,9,10,12,13-octahydro-2-methoxy-6,9-methano 5H-pyrido(1′,2′:1,2-azepine (4,5-)indole) [Ibogaine]
- nH (hα3β4 AChR [3]; [7]): 0.95 ±0.13
- nH (hα3β4 AChR [3]; Resting state): 0.79 ± 0.13
- fold higher affinity for desensitized than resting AChR (hα3β4 AChR [3]; [3H]TCP competition): ~ 2.6 fold
- nH (hα3β4 AChR [4]; [7]): 1.01 ±0.11
- nH (hα3β4 AChR [4]; Resting state): 0.82 ± 0.08
- fold higher affinity for desensitized/nicotine-bound than resting/no ligand AChR (hα3β4 AChR [4]; [3H]ibogaine competition, p < 0.05): ~ 2.8 fold
- nH (Hill coefficient) (hα3β4 AChR [1]): 1.24 ± 0.07
- fold higher potency than PCP in inhibiting (±)-epibatidine-induced Ca2+ influx (hα3β4 AChR [1]; ibogaine IC50 versus PCP IC50): ~ 9 fold
- koff (hα3β4 AChR [5]): 0.078 ± 0.002 s⁻¹
- kon (hα3β4 AChR [5]): 300000 ± 10000 M⁻¹ s⁻¹
- ΔG (hα3β4 AChR [5]): -8.82 ± 0.024 kcal/mol
- Ka (association constant) (hα3β4 AChR [5]; [8]): 3.47 ± 0.12 µM⁻¹
- koff (hα3β4 AChR [5]; [8]): 0.088 ± 0.001 s⁻¹
- kon (hα3β4 AChR [5]; AChR in the resting state (κ-BTx), kon = koff·Ka): 310000 ± 20000 M⁻¹ s⁻¹
- association rate constants kon (order of magnitude) (hα3β4 AChR [5]; both conformational states): ~ 10^5 M^−1 s^−1
- ΔH^+ (enthalpy change of the transition state) (hα3β4 AChR [6]; [9]): 12.7 ± 1.8 kJmol^−1
- −TΔS° (hα3β4 AChR [6]; [9]): −29.4 ± 0.3 kJmol-^1
- ΔG^20 (hα3β4 AChR [6]; [9]): −37.0 ± 0.1 kJmol^−1
- Ea (energy of activation of the dissociation process) (hα3β4 AChR [6]; [9]): 15.1 ± 1.8 kJmol^−1
- ΔH° (hα3β4 AChR [6]; [9]): -1.82 ± 0.072 kcal/mol
- ΔH^+ (enthalpy change of the transition state) (hα3β4 AChR [6]; [10]): 11.2 ± 0.7 kJmol^−1
- −TΔS° (hα3β4 AChR [6]; [10]): −26.2 ± 0.7 kJmol-^1
- ΔG^20 (hα3β4 AChR [6]; [10]): −36.7 ± 0.1 kJmol^−1
- Ea (energy of activation of the dissociation process) (hα3β4 AChR [6]; [10]): 13.7 ± 0.7 kJmol^−1
- ΔH° (hα3β4 AChR [6]; [10]): -2.51 ± 0.17 kcal/mol
